Holding throughout (format): cell-based
Test [1] deals with S. aureus SR3637 (H-MRSA). In words: MIC by agar dilution method, S. aureus SR3637 (H-MRSA). Conditions: Methicillin High-Resistant Staphylococcus Aureus; for MIC: MRSA, read-out: MIC (minimum inhibitory concentration) S. aureus SR3637 (H-MRSA). The protocol:
(§1) The MIC (minimum inhibitory concentration) value of the invention compounds against various bacterial was determined by the usual agar dilution method.

The subject of test [2] is S. epidermidis SR25009 (MRSE). In words: MIC by agar dilution method, S. epidermidis SR25009 (MRSE). To be noted: Methicillin High-Resistant Staphylococcus Epidermidis; for MIC: MRSE, read-out: MIC (minimum inhibitory concentration) S. epidermidis SR25009 (MRSE). On the procedure: as §1
A general note: In agar dilution the substance is mixed into plates at graded concentrations.

In test [3] the test system is E. cloacae SR4321 (Bla++). In words: MIC by agar dilution method, E. cloacae SR4321 (Bla++). To be noted: AmpC High-Production Cephem Resistant Strain; for MIC: Enterobacter cloacae, read-out: MIC (minimum inhibitory concentration) E. cloacae SR4321 (Bla++). On the procedure: as §1
The next test has as its system P. aeruginosa SR24-12. In words: MIC by agar dilution method, P. aeruginosa SR24-12. Conditions: for MIC: Pseudomonas aeruginosa, SR2412, AmpC High-Production Cephem Resistant Strain, read-out: MIC (minimum inhibitory concentration) P. aeruginosa SR24-12. On the procedure:
as §1

Each structure is given as a SMILES string. Values after ≈ are worked out from the molar mass of the structure shown. A value given as a limit tells only on which side of the number the result lay.

Take `C[C@H](N)Cn1c(N)nc2c1ccc[n+]2CC1=C(C(=O)[O-])N2C(=O)C(NC(=O)/C(=N\O[C@@H](C)C(=O)O)c3nc(N)sc3Cl)C2SC1` (stereo partly drawn) [Ex. 98]: the MIC was 8 µg/mL (≈ 11.8 µM) in test [1], 8 µg/mL (≈ 11.8 µM) in test [2], 2 µg/mL (≈ 2.94 µM) in test [3] and 2 µg/mL (≈ 2.94 µM) with P. aeruginosa SR24-12.
Consider `CNCCNc1cc[n+](CC2=C(C(=O)[O-])N3C(=O)[C@@H](NC(=O)/C(=N\O[C@@H](C)C(=O)O)c4nc(N)sc4Cl)[C@H]3SC2)cc1` [Ex. 124], for which the MIC came to 16 µg/mL (≈ 25 µM) in test [1], 8 µg/mL (≈ 12.5 µM) in test [2], 4 µg/mL (≈ 6.26 µM) in test [3] and 4 µg/mL (≈ 6.26 µM) with P. aeruginosa SR24-12.
With `C=C(O/N=C(\C(=O)NC1C(=O)N2C(C(=O)[O-])=C(C[n+]3cccc4c3ccn4CCCNC)CSC12)c1nc(N)sc1Cl)C(=O)O` (stereo not drawn) [Ex. 19], the MIC came to 16 µg/mL (≈ 23.7 µM) in test [1], 8 µg/mL (≈ 11.8 µM) in test [2], 1 µg/mL (≈ 1.48 µM) in test [3] and 8 µg/mL (≈ 11.8 µM) in the test with P. aeruginosa SR24-12.
As for `CC(C)(O/N=C(\C(=O)NC1C(=O)N2C(C(=O)[O-])=C(C[n+]3ccccc3)CSC12)c1nc(N)sc1Cl)C(=O)O` (stereo not drawn) [Ex. 3], the MIC came out at 32 µg/mL (≈ 55.1 µM) in test [1], 32 µg/mL (≈ 55.1 µM) in test [2], 16 µg/mL (≈ 27.5 µM) in test [3] and 8 µg/mL (≈ 13.8 µM) in the test with P. aeruginosa SR24-12.
For the compound `CC(C)(O/N=C(\C(=O)N[C@@H]1C(=O)N2C(C(=O)[O-])=C(C[n+]3ccccc3)CS[C@H]12)c1csc(N)n1)C(=O)O` [Ref. 1, Ceftazidime, reference compound], the “MIC (minimum inhibitory concentration) S. aureus SR3637 (H-MRSA)” value in test [1] was over 128 µg/mL. The “MIC (minimum inhibitory concentration) S. epidermidis SR25009 (MRSE)” value in test [2] was over 128 µg/mL. Besides, the “MIC (minimum inhibitory concentration) E. cloacae SR4321 (Bla++)” value in test [3] came out at 64 µg/mL (≈ 117 µM). The “MIC (minimum inhibitory concentration) P. aeruginosa SR24-12” value against P. aeruginosa SR24-12 (AmpC High-Production Cephem Resistant Strain) worked out at 64 µg/mL (≈ 117 µM).
For `CNCCCn1c(N)nc2c1ccc[n+]2CC1=C(C(=O)[O-])N2C(=O)[C@@H](NC(=O)/C(=N\O[C@@H](C)C(=O)O)c3nc(N)sc3Cl)C2SC1` (stereo partly drawn) [Ex. 79], the MIC amounted to 8 µg/mL (≈ 11.5 µM) in test [1], 8 µg/mL (≈ 11.5 µM) in test [2], 2 µg/mL (≈ 2.89 µM) in test [3] and 4 µg/mL (≈ 5.77 µM) in the test with P. aeruginosa SR24-12.
As to `CNCCCn1ccc2c1ccc[n+]2CC1=C(C(=O)[O-])N2C(=O)C(NC(=O)/C(=N\O[C@H](C)C(=O)O)c3nc(N)sc3Cl)C2SC1` (stereo partly drawn) [Ex. 8], the MIC in test [1] was determined as 32 µg/mL (≈ 47.3 µM); in test [2], 32 µg/mL (≈ 47.3 µM); in test [3], 4 µg/mL (≈ 5.91 µM); in the test with P. aeruginosa SR24-12 it was 4 µg/mL (≈ 5.91 µM).
Regarding `CNCCCn1ccc2c1ccc[n+]2CC1=C(C(=O)[O-])N2C(=O)C(NC(=O)/C(=N\OC(C)(C)C(=O)O)c3nc(N)sc3Br)C2SC1` (stereo not drawn) [Ex. 20], the MIC in test [1] came out at 16 µg/mL (≈ 21.7 µM); in test [2] it was 16 µg/mL (≈ 21.7 µM); in test [3], 8 µg/mL (≈ 10.9 µM); with P. aeruginosa SR24-12 it was 4 µg/mL (≈ 5.44 µM).
For the compound `C[C@H](O/N=C(\C(=O)N[C@@H]1C(=O)N2C(C(=O)[O-])=C(C[n+]3ccc(NC4CCNC4)cc3)CS[C@H]12)c1nc(N)sc1Cl)C(=O)O` (stereo partly drawn) [Ex. 132], the MIC was determined as 16 µg/mL (≈ 24.6 µM) in test [1], 8 µg/mL (≈ 12.3 µM) in test [2], 4 µg/mL (≈ 6.14 µM) in test [3] and 4 µg/mL (≈ 6.14 µM) in the test with P. aeruginosa SR24-12.

For the origin of these results see patent US7696354B2, “Cephem compounds having broad antibacterial spectrum” (Shionogi & Co., Ltd., priority 2002, dated 2010).
